Measurements from ChEMBL document CHEMBL1201862, “PubChem BioAssay data set” (2004).
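Interpolation was linear, between the two tested concentrations surrounding the appropriate level; five concentrations were tested over 48 hours in 96-well plates. At the GI50, growth is halved.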 The source made the active and inactive calls. Rule as the data show it: active = GI50 up to about 1.1 µM and inactive = higher.

Legend:
Assay in all cases: NCI tumour cell line growth inhibition, 48 h
786-0 = tested on: 786-0
CCRF-CEM = tested on: CCRF-CEM
HCC 2998 = tested on: HCC 2998
HCT-15 = tested on: HCT-15
HL-60 = tested on: HL-60
HOP-92 = tested on: HOP-92
HT-29 = tested on: HT-29
K562 = tested on: K562
LOX IMVI = tested on: LOX IMVI
M14 = tested on: M14
MCF7 = tested on: MCF7
OVCAR-3 = tested on: OVCAR-3
OVCAR-4 = tested on: OVCAR-4
RPMI-8226 = tested on: RPMI-8226
SF-295 = tested on: SF-295
SK-MEL-28 = tested on: SK-MEL-28
SK-MEL-2 = tested on: SK-MEL-2
SK-OV-3 = tested on: SK-OV-3
UACC-62 = tested on: UACC-62
NCI-H226 = tested on: NCI-H226

Row | Structure (SMILES) | GI50 (786-0) | GI50 (CCRF-CEM) | GI50 (HCC 2998) | GI50 (HCT-15) [µM] | GI50 (HL-60) | GI50 (HOP-92) | GI50 (HT-29) | GI50 (K562) | GI50 (LOX IMVI) | GI50 (M14) | GI50 (MCF7) | GI50 (OVCAR-3) | GI50 (OVCAR-4) | GI50 (RPMI-8226) | GI50 (SF-295) | GI50 (SK-MEL-28) | GI50 (SK-MEL-2) | GI50 (SK-OV-3) | GI50 (UACC-62) | GI50 (NCI-H226)
1 | CN(C)/N=N/c1ccc(NC=O)cc1 | > 100 µM (inactive) | 40.7 µM (inactive) | > 100 µM (inactive) | > 100 | 51.9 µM (inactive) | > 100 µM (inactive) | > 100 µM (inactive) | 43.3 µM (inactive) | > 100 µM (inactive) | > 100 µM (inactive) | > 100 µM (inactive) | > 100 µM (inactive) | > 100 µM (inactive) | 69 µM (inactive) | > 100 µM (inactive) | > 100 µM (inactive) | > 100 µM (inactive) | > 100 µM (inactive) | 40.6 µM (inactive) | –
2 | COc1ccc(C2=C(N)c3c(Cl)cccc3C2=O)cc1 | > 100 µM (inactive) | > 100 µM (inactive) | > 100 µM (inactive) | > 100 | > 100 µM (inactive) | 34.9 µM (inactive) | > 100 µM (inactive) | – | > 100 µM (inactive) | > 100 µM (inactive) | > 100 µM (inactive) | > 100 µM (inactive) | > 100 µM (inactive) | > 100 µM (inactive) | > 100 µM (inactive) | > 100 µM (inactive) | > 100 µM (inactive) | 55.3 µM (inactive) | > 100 µM (inactive) | > 100 µM (inactive)
3 | COC(=O)[C@H](Cc1ccccc1)NP(=O)(O)OCC1C=CC(n2cc(C)c(=O)[nH]c2=O)O1 (stereo partly specified) | > 100 µM (inactive) | > 100 µM (inactive) | > 100 µM (inactive) | > 100 | > 100 µM (inactive) | > 100 µM (inactive) | > 100 µM (inactive) | > 100 µM (inactive) | > 100 µM (inactive) | > 100 µM (inactive) | > 100 µM (inactive) | > 100 µM (inactive) | > 100 µM (inactive) | > 100 µM (inactive) | > 100 µM (inactive) | – | > 100 µM (inactive) | > 100 µM (inactive) | > 100 µM (inactive) | > 100 µM (inactive)
4 | O=C(NCCCl)O/N=C/c1cccnc1 | – | > 100 µM (inactive) | > 100 µM (inactive) | > 100 | > 100 µM (inactive) | > 100 µM (inactive) | > 100 µM (inactive) | > 100 µM (inactive) | > 100 µM (inactive) | – | > 100 µM (inactive) | > 100 µM (inactive) | > 100 µM (inactive) | > 100 µM (inactive) | > 100 µM (inactive) | > 100 µM (inactive) | > 100 µM (inactive) | > 100 µM (inactive) | > 100 µM (inactive) | > 100 µM (inactive)
5 | COc1cc(OC2OC(CO)C(O)C(O)C2O)c2c(O)c3c(=O)cc(C)oc3cc2c1 (stereo unspecified) | – | > 100 µM (inactive) | > 100 µM (inactive) | > 100 | > 100 µM (inactive) | > 10 µM (inactive) | > 100 µM (inactive) | > 100 µM (inactive) | > 100 µM (inactive) | > 100 µM (inactive) | > 100 µM (inactive) | > 100 µM (inactive) | > 100 µM (inactive) | > 100 µM (inactive) | 65.5 µM (inactive) | > 100 µM (inactive) | > 100 µM (inactive) | > 100 µM (inactive) | > 100 µM (inactive) | 9.55 µM (inactive)
6 | Oc1nc(-c2ccc3ccccc3c2)nc2ccccc12 | 6.89 µM (inactive) | – | 62.5 µM (inactive) | > 100 | > 100 µM (inactive) | 17.4 µM (inactive) | 57.7 µM (inactive) | > 100 µM (inactive) | > 100 µM (inactive) | 33.5 µM (inactive) | 64.4 µM (inactive) | 35.4 µM (inactive) | 3.81 µM (inactive) | > 100 µM (inactive) | 23.4 µM (inactive) | > 100 µM (inactive) | 91.8 µM (inactive) | 30.3 µM (inactive) | > 100 µM (inactive) | 12.6 µM (inactive)
7 | CC1CC(C)(O)C2C3(C)CCCC2(COC3=O)C12CCC1(CCOC1=O)O2 (stereo unspecified) | – | > 250 µM (inactive) | > 250 µM (inactive) | > 250 | > 250 µM (inactive) | > 250 µM (inactive) | > 250 µM (inactive) | > 250 µM (inactive) | > 250 µM (inactive) | – | > 250 µM (inactive) | > 250 µM (inactive) | > 250 µM (inactive) | > 250 µM (inactive) | > 250 µM (inactive) | > 250 µM (inactive) | > 250 µM (inactive) | > 250 µM (inactive) | > 250 µM (inactive) | > 250 µM (inactive)
8 | OCC1OC(n2cnc3c2NC=NC[C@H]3O)C(O)C1O (stereo partly specified) | – | 172 µM (inactive) | > 330 µM (inactive) | 205 | 86.7 µM (inactive) | > 192 µM (inactive) | > 450 µM (inactive) | 249 µM (inactive) | 170 µM (inactive) | – | > 450 µM (inactive) | > 450 µM (inactive) | > 450 µM (inactive) | 201 µM (inactive) | > 450 µM (inactive) | > 450 µM (inactive) | 339 µM (inactive) | 234 µM (inactive) | > 450 µM (inactive) | 173 µM (inactive)
9 | C=C[C@@](C)(/C=C/c1ccc(O)cc1)CCC=C(C)C [BAKUCHIOL] | – | 14.8 µM (inactive) | 20.6 µM (inactive) | 16.8 | 14.1 µM (inactive) | 16.5 µM (inactive) | 16.5 µM (inactive) | 15.7 µM (inactive) | 18.2 µM (inactive) | 19.1 µM (inactive) | 19.5 µM (inactive) | 18.3 µM (inactive) | 14 µM (inactive) | 14.9 µM (inactive) | 20.2 µM (inactive) | 20 µM (inactive) | 22 µM (inactive) | 16.3 µM (inactive) | – | 19 µM (inactive)
10 | CC(C)c1oc(=O)cc2c1C(O)C1OC(=O)C3(C)C(O)C4OC4C2(C)C13 (stereo unspecified) [NAGILACTONE] | – | 0.817 µM (active) | 1.86 µM (inactive) | 2.07 | 0.478 µM (active) | 0.7 µM (active) | 1.69 µM (inactive) | 1.01 µM (active) | 0.653 µM (active) | – | 0.728 µM (active) | 1.41 µM (inactive) | 2.12 µM (inactive) | 1.1 µM (active) | 1.65 µM (inactive) | 1.37 µM (inactive) | 2.16 µM (inactive) | 5.2 µM (inactive) | 1.38 µM (inactive) | 2.16 µM (inactive)
11 | O=C(O)C(Cc1cccs1)NC(=O)C(F)(F)F (stereo unspecified) | – | > 100 µM (inactive) | > 100 µM (inactive) | > 100 | > 100 µM (inactive) | > 100 µM (inactive) | > 100 µM (inactive) | > 100 µM (inactive) | > 100 µM (inactive) | – | > 100 µM (inactive) | > 100 µM (inactive) | > 100 µM (inactive) | > 100 µM (inactive) | > 100 µM (inactive) | > 100 µM (inactive) | > 100 µM (inactive) | > 100 µM (inactive) | > 100 µM (inactive) | > 100 µM (inactive)
12 | CCC(=O)OCN(C)c1nc(N(C)COC(=O)CC)nc(N(C)COC(=O)CC)n1 | – | 24.8 µM (inactive) | 24.6 µM (inactive) | 21.4 | > 10 µM (inactive) | 89.5 µM (inactive) | 26.9 µM (inactive) | 13.7 µM (inactive) | 18 µM (inactive) | 28.1 µM (inactive) | 42 µM (inactive) | > 100 µM (inactive) | 30.5 µM (inactive) | 27.4 µM (inactive) | > 100 µM (inactive) | 64.9 µM (inactive) | 18.2 µM (inactive) | > 100 µM (inactive) | 18.6 µM (inactive) | 85.5 µM (inactive)
13 | Cc1c(S(=O)(=O)c2ccccc2)c(N)n(CCN(C)C)c1C | > 100 µM (inactive) | > 100 µM (inactive) | 75 µM (inactive) | > 100 | > 100 µM (inactive) | > 100 µM (inactive) | > 100 µM (inactive) | > 100 µM (inactive) | – | > 100 µM (inactive) | > 100 µM (inactive) | > 100 µM (inactive) | > 100 µM (inactive) | > 100 µM (inactive) | > 100 µM (inactive) | > 100 µM (inactive) | > 100 µM (inactive) | > 100 µM (inactive) | > 100 µM (inactive) | > 100 µM (inactive)
14 | O=c1cc(N2CCCC2)[nH]c(=O)n1-c1ccccc1 | > 100 µM (inactive) | > 100 µM (inactive) | 37 µM (inactive) | > 100 | > 100 µM (inactive) | > 100 µM (inactive) | > 100 µM (inactive) | > 100 µM (inactive) | > 100 µM (inactive) | > 100 µM (inactive) | > 100 µM (inactive) | – | > 100 µM (inactive) | > 100 µM (inactive) | > 100 µM (inactive) | > 100 µM (inactive) | > 100 µM (inactive) | – | – | > 100 µM (inactive)
15 | CC(NNC(=O)c1cc[n+]([BH2-]C#N)cc1)c1ccc(Cl)cc1Cl (stereo unspecified) | 49.1 µM (inactive) | 33.3 µM (inactive) | 57.1 µM (inactive) | 44.8 | 23.8 µM (inactive) | 37.4 µM (inactive) | – | 24.2 µM (inactive) | 29.2 µM (inactive) | 42.4 µM (inactive) | 36 µM (inactive) | 25 µM (inactive) | 30.7 µM (inactive) | 17.6 µM (inactive) | 32.5 µM (inactive) | 44.5 µM (inactive) | 49.5 µM (inactive) | – | 55.8 µM (inactive) | 14.2 µM (inactive)
